Data as given in US6942876B2, “Analgesic compositions comprising anti-epileptic compounds and methods of using same” (Warner-Lambert Company, priority 1997, dated 2005).

System: Carrageenan-induced thermal hyperalgesia
Test: carrageenan rat footpad thermal hyperalgesia test (Hargreaves test)
Assay type: in vivo
Method: In this example, gabapentin, naproxen sodium, and the combination of gabapentin and naproxen sodium were evaluated in a standard rat carrageenan footpad thermal hyperalgesia assay. This assay utilizes an extract of seaweed (carrageenan) that, when injected into the footpad of test animals, causes a sterile inflammation, thereby lowering the pain threshold.
Male Sprague-Dawley rats (200-250 g, Sasco Laboratories) were used. Rats were group housed 5/cage on a 12-hour light:dark cycle with free access to food and water. Rats received only one dose of a drug or drug combination. All drugs were administered orally by gavage.
Dose-effect curves were first determined for (1) gabapentin by itself and (2) a prototypic NSAID (e.g., naproxen) by itself The ED50 value and 95% confidence limits of each agent was determined, as was the time to peak effect. […]
Carrageenan-induced thermal hyperalgesia: Rats were acclimated to a testing chamber whose glass floor was maintained at 25° C. Thirty minutes later, a high intensity beam of light was focused through the glass on the ventral surface of each hindpaw, and the latency to reflex withdrawal of the paw from the light beam was measured to the nearest 0.1 second. […]
Data were expressed as the mean ±SEM. […]

In the case of `COc1ccc2cc([C@H](C)C(=O)O)ccc2c1` [Naproxen sodium, naproxen sodium], the anti-hyperalgesic action (PO, gabapentin 3-100 mg/kg, naproxen sodium 0.3-30 mg/kg, fixed-ratio combinations at various dosages) was “anti-hyperalgesic actions” and the ED50 (Rattus norvegicus, 2 h, single drug, oral gavage, male Sprague-Dawley rats, paw flick latency 120 min after dosing, 95% confidence limits in parentheses) was 0.36 mg/kg.
